Experimental data from article PMC8190895 (RSC Chemical Biology, 2021).
Read-outs that look alike come from different tables or passages of the source.

What was measured:
Assay in all cases: ITC
Format in all cases: binding
[1] = biological target: T1, Gal-8C (C-terminal CRD of human galectin-8) (Homo sapiens, UniProt O00214); conditions: PBS (50 mM sodium phosphate, 150 mM NaCl) pH 7.4, 1 mM TCEP, 298 K
T1 sequence (O00214 184-317): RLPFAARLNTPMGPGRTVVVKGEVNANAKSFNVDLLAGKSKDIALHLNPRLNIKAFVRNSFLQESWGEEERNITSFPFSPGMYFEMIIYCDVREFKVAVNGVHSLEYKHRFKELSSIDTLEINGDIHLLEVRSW

[2] = biological target: T2, Gal-8FL (full-length human galectin-8) (Homo sapiens, UniProt O00214); conditions: PBS (50 mM sodium phosphate, 150 mM NaCl) pH 7.4, 1 mM TCEP, 298 K
T2 sequence (O00214 1-317): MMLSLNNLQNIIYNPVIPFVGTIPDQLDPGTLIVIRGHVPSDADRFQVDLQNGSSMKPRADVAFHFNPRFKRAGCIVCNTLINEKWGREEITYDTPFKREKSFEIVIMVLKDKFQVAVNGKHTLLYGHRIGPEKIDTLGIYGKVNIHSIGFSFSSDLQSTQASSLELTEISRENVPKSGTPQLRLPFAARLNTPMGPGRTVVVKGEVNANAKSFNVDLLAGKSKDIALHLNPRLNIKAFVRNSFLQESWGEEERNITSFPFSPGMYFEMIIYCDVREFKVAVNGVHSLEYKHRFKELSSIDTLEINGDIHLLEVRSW

[3] = biological target: T3, Gal-8N (N-terminal CRD of human galectin-8) (Homo sapiens, UniProt O00214); conditions: read-out: Neu5Acα2-3Galb1-3GalNAc (3); PBS (50 mM sodium phosphate, 150 mM NaCl) pH 7.4, 1 mM TCEP, 298 K
T3 sequence (O00214 1-155): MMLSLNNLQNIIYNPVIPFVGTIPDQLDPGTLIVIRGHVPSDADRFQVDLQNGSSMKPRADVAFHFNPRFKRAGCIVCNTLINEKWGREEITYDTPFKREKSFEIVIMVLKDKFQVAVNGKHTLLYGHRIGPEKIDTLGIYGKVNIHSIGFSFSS

SMILES: CC(=O)N[C@H]1C(O)O[C@H](CO)[C@@H](O[C@@H]2O[C@H](CO)[C@H](O)[C@H](O[C@H]3O[C@H](CO)[C@H](O)[C@H](O)[C@H]3O)[C@H]2O[C@@H]2O[C@@H](C)[C@@H](O)[C@@H](O)[C@@H]2O)[C@@H]1O (stereo partly drawn) [compound 5, B type II]
- Kd ([1]; read-out: B type II (5)): 18.4 ± 0.1 µM
- Kd ([2]; read-out: B type II (5), site: C-terminal CRD): 36.7 ± 0.6 µM

SMILES: CC(=O)N[C@H]1[C@@H](O[C@H]2[C@@H](O)[C@@H](CO)O[C@@H](O[C@H]3[C@H](O)[C@@H](NC(C)=O)C(O)O[C@@H]3CO)[C@@H]2O[C@@H]2O[C@@H](C)[C@@H](O)[C@@H](O)[C@@H]2O)O[C@H](CO)[C@H](O)[C@@H]1O (stereo partly drawn) [compound 6, A type II]
- Kd ([1]; read-out: A type II (6)): 13.45 ± 0.05 µM
- Kd ([2]; read-out: A type II (6), site: C-terminal CRD, not pre-loaded): 12 ± 1 µM

SMILES: CC(=O)N[C@H]1[C@H]([C@H](O)[C@H](O)CO)O[C@@](O[C@H]2[C@@H](O)[C@@H](CO)O[C@@H](O[C@H]3[C@@H](O)[C@@H](CO)OC(O)[C@@H]3NC(C)=O)[C@@H]2O)(C(=O)O)C[C@@H]1O (stereo partly drawn) [compound 3, 3-sialyl-Galβ1–3GalNAc]
- Kd [3]: 2.2 ± 0.1 µM
- Kd ([2]; read-out: Neu5Acα2-3Galb1-3GalNAc (3), site: N-terminal CRD, not pre-loaded): 4.3 ± 0.4 µM
